Assay results from US11192878B2, “Piperidine-2,6-dione derivative and use thereof” (KOREA RESEARCH INSTITUTE OF CHEMICAL TECHNOLOGY, priority 2017, dated 2021).
Structures can show the parent of a compound that is named as a salt.

System: NCI-H929 cells
Test: Cytotoxicity experiment (WST-1)
Assay type: cell-based
Conditions: Homo sapiens, 72 hours, WST-1, absorbance 450 nm
Procedure: In order to confirm the effect of the compound of the present disclosure on cancer cells and normal cells, the cytotoxicity experiment was conducted as follows.
After seeding NCI-H929 cells on a 96-well plate so as to be 10,000 cells per each well, each compound was treated in a predetermined concentration. In 72 hours, WST-1 reagent was added, and in 1 hour, the absorbance was measured at 450 nm using spectramax spectrophotometer to measure the degree of cell death.

SMILES	IC50 [µM]
Nc1cccc2nnn(C3CCC(=O)N(COC(=O)C4CCNCC4)C3=O)c(=O)c12 (stereo not drawn) [Chemical formula 60, (3-(5-amino-4-oxobenzo[d][1,2,3]triazin-3(4H)-yl)-2,6-dioxopiperidin-1-yl)methyl piperidine-4-carboxylate hydrochloride]	< 1
CC1(n2nnc3cccc(N)c3c2=O)CCC(=O)NC1=O (stereo not drawn) [Chemical formula 30, 3-(5-amino-4-oxobenzo[d][1,2,3]triazin-3(4H)-yl)-3-methylpiperidine-2,6-dione]	10 to 50
Cc1ccc(NC(=O)NCc2ccc3c(=O)n(C4CCC(=O)NC4=O)nnc3c2)cc1Cl (stereo not drawn) [Chemical formula 37, 1-(3-chloro-4-methylphenyl)-3-((3-(2,6-dioxopiperidin-3-yl)-4-oxo-3,4-dihydrobenzo[d][1,2,3]triazin-7-yl)methyl)urea]	< 1
O=C1CCC(n2nnc3ccc(Cl)cc3c2=O)C(=O)N1 (stereo not drawn) [Chemical formula 12, 3-(6-chloro-4-oxobenzo[d][1,2,3]triazin-3(4H)-yl)piperidine-2,6-dione]	10 to 50
Nc1cccc2nnn(C3CCC(=O)N(COC(=O)[C@H]4CCCN4)C3=O)c(=O)c12 (stereo partly drawn) [Chemical formula 61, (3-(5-amino-4-oxobenzo[d][1,2,3]triazin-3(4H)-yl)-2,6-dioxopiperidin-1-yl)methyl D-prolinate hydrochloride]	< 1
Nc1cccc2nnn(C3CCC(=O)NC3=O)c(=O)c12 (stereo not drawn) [Chemical formula 7, 3-(5-amino-4-oxobenzo[d][1,2,3]triazin-3(4H)-yl)piperidine-2,6-dione]	< 1
CC[C@H](C)[C@H](N)C(=O)OCN1C(=O)CCC(n2nnc3cccc(N)c3c2=O)C1=O (stereo partly drawn) [Chemical formula 62, (3-(5-amino-4-oxobenzo[d][1,2,3]triazin-3(4H)-yl)-2,6-dioxopiperidin-1-yl)methyl L-isoleucinate hydrochloride]	< 1
O=C1CCC(n2nnc3ccccc3c2=O)C(=O)N1 (stereo not drawn) [Chemical formula 25, 3-(4-oxobenzo[d][1,2,3]triazin-3(4H)-yl)piperidine-2,6-dione]	1 to 10
Nc1cccc2c(=O)n(C3CCC(=O)NC3=O)ccc12 (stereo not drawn) [Chemical formula 24, 3-(5-amino-1-oxoisoquinolin-2(1H)-yl)piperidine-2,6-dione]	10 to 50
Nc1cccc2ccn(C3CCC(=O)NC3=O)c(=O)c12 (stereo not drawn) [Chemical formula 31, 3-(8-amino-1-oxoisoquinolin-2(1H)-yl)piperidine-2,6-dione]	10 to 50
O=C1CCC(n2nnc3cc([N+](=O)[O-])ccc3c2=O)C(=O)N1 (stereo not drawn) [Chemical formula 26, 3-(7-nitro-4-oxobenzo[d][1,2,3]triazin-3(4H)-yl)piperidine-2,6-dione]	10 to 50
CCCC(=O)OCN1C(=O)CCC(n2nnc3cccc(N)c3c2=O)C1=O (stereo not drawn) [Chemical formula 63, (3-(5-amino-4-oxobenzo[d][1,2,3]triazin-3(4H)-yl)-2,6-dioxopiperidin-1-yl)methyl butyrate]	< 1
Nc1ccc2nnn(C3CCC(=O)NC3=O)c(=O)c2c1 (stereo not drawn) [Chemical formula 65, 3-(6-amino-4-oxobenzo[d][1,2,3]triazin-3(4H)-yl)piperidine-2,6-dione]	10 to 50
O=C1CCC(n2nnc3cccc(F)c3c2=O)C(=O)N1 (stereo not drawn) [Chemical formula 8, 3-(5-fluoro-4-oxobenzo[d][1,2,3]triazin-3(4H)-yl)piperidine-2,6-dione]	1 to 10
Cc1ccc(NC(=O)NCc2ccc3nnn(C4CCC(=O)NC4=O)c(=O)c3c2)cc1Cl (stereo not drawn) [Chemical formula 38, 1-(3-chloro-4-methylphenyl)-3-((3-(2,6-dioxopiperidin-3-yl)-4-oxo-3,4-dihydrobenzo[d][1,2,3]triazin-6-yl)methyl)urea]	< 1
CC(C)(C)C(=O)OCN1C(=O)CCC(n2nnc3cccc(N)c3c2=O)C1=O (stereo not drawn) [Chemical formula 58, (3-(5-amino-4-oxobenzo[d][1,2,3]triazin-3(4H)-yl)-2,6-dioxopiperidin-1-yl)methyl pivalate]	< 1
CC(=O)Nc1cccc2nnn(C3CCC(=O)NC3=O)c(=O)c12 (stereo not drawn) [Chemical formula 20, N-(3-(2,6-dioxopiperidin-3-yl)-4-oxo-3,4-dihydrobenzo[d][1,2,3]triazin-5-yl)acetamide]	10 to 50
O=C1CCC(n2nnc3cccc(NC(=O)c4ccccc4)c3c2=O)C(=O)N1 (stereo not drawn) [Chemical formula 56, N-(3-(2,6-dioxopiperidin-3-yl)-4-oxo-3,4-dihydrobenzo[d][1,2,3]triazin-5-yl)benzamide]	10 to 50
CC(=O)Nc1ccc2nnn(C3CCC(=O)NC3=O)c(=O)c2c1 (stereo not drawn) [Chemical formula 23, N-(3-(2,6-dioxopiperidin-3-yl)-4-oxo-3,4-dihydrobenzo[d][1,2,3]triazin-6-yl)acetamide]	10 to 50
Nc1cccc2nnn(C3CCC(=O)N(COC(=O)c4ccccc4)C3=O)c(=O)c12 (stereo not drawn) [Chemical formula 59, (3-(5-amino-4-oxobenzo[d][1,2,3]triazin-3(4H)-yl)-2,6-dioxopiperidin-1-yl)methyl benzoate]	< 1
O=C1CCC(n2nnc3cccc([N+](=O)[O-])c3c2=O)C(=O)N1 (stereo not drawn) [Chemical formula 9, 3-(5-nitro-4-oxobenzo[d][1,2,3]triazin-3(4H)-yl)piperidine-2,6-dione]	10 to 50
O=C1CCC(n2nnc3cccc(C(=O)O)c3c2=O)C(=O)N1 (stereo not drawn) [Chemical formula 29, 3-(2,6-dioxopiperidin-3-yl)-4-oxo-3,4-dihydrobenzo[d][1,2,3]triazin-5-carboxylic acid]	10 to 50
Cc1cccc2nnn(C3CCC(=O)NC3=O)c(=O)c12 (stereo not drawn) [Chemical formula 11, 3-(5-methyl-4-oxobenzo[d][1,2,3]triazin-3(4H)-yl)piperidine-2,6-dione]	1 to 10
O=C1CCC(n2nnc3ccc([N+](=O)[O-])cc3c2=O)C(=O)N1 (stereo not drawn) [Chemical formula 27, 3-(6-nitro-4-oxobenzo[d][1,2,3]triazin-3(4H)-yl)piperidine-2,6-dione]	10 to 50
O=C1CCC(n2nnc3cccc(O)c3c2=O)C(=O)N1 (stereo not drawn) [Chemical formula 57, 3-(5-hydroxy-4-oxobenzo[d][1,2,3]triazin-3(4H)-yl)piperidine-2,6-dione]	< 1
COc1ccc2nnn(C3CCC(=O)NC3=O)c(=O)c2c1 (stereo not drawn) [Chemical formula 19, 3-(6-methoxy-4-oxobenzo[d][1,2,3]triazin-3(4H)-yl)piperidine-2,6-dione]	10 to 50
O=C1CCC(n2nnc3c([N+](=O)[O-])cccc3c2=O)C(=O)N1 (stereo not drawn) [Chemical formula 21, 3-(8-nitro-4-oxobenzo[d][1,2,3]triazin-3(4H)-yl)piperidine-2,6-dione]	10 to 50
